The experiment deals with human LPAR1 (Homo sapiens, UniProt Q92633). Description: In vitro functional assay of lysophosphatidic acid receptor 1 activity (calcium flux). The experiment is classed as cell-based.
[1] abbreviates: B103 cells stably expressing human LPAR1, calcium flux (Fluo-4 NW) after lysophosphatidic acid (18:1) at EC80, 100 pM to 10 μM, read-out: LPAR1 IC50.

Like-named read-outs stand apart in the source and are kept apart here.

Sequence of human LPAR1 (Q92633 whole entry): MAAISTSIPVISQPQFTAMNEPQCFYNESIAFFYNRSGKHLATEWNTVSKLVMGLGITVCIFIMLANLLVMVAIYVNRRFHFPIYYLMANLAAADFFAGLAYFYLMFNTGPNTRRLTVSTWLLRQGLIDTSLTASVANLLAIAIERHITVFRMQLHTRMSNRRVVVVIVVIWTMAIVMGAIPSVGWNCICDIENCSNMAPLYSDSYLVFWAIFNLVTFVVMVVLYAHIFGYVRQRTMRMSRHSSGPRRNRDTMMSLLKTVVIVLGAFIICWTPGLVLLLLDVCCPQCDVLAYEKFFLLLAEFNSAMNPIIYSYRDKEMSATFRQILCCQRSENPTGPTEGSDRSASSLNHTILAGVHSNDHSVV

Turning to `CC(=O)N1CC2(CC(N(C(=O)Nc3ccc(C)nc3OC(F)F)c3ccccc3C(C)C)C2)C1` [Example 70, 1-(2-acetyl-2-azaspiro[3.3]heptan-6-yl)-3-(2-(difluoromethoxy)-6-methylpyridin-3-yl)-1-(2-isopropylphenyl)urea], the IC50 under setting [1] was in the range of 100 to 1000 nM.
On the same count and under the same terms, the value for `Cc1ccc(NC(=O)N(c2ccccc2C(C)C)[C@@H]2CC[C@H](C(=O)O)C2)c(OC(F)F)n1` [Example 302] was 10 to 100 nM.
Take `Cc1ccc(NC(=O)N(c2ccccc2C(C)C)C2CCN(S(C)(=O)=O)CC2)c(OC(F)F)n1` [Example 73, 3-(2-(difluoromethoxy)-6-methylpyridin-3-yl)-1-(2-isopropylphenyl)-1-(1-(methylsulfonyl)piperidin-4-yl)urea]: where the note is “LPAR1 IC50”, the IC50 is less than 10 nM.
On to `CC(=O)N1C[C@@H]2[C@H](C1)[C@H]2N(C(=O)Nc1ccc(C)nc1OC(F)F)c1ccccc1C(C)C` [Example 69, 1-((1R,5S,6s)-3-acetyl-3-azabicyclo[3.1.0]hexan-6-yl)-3-(2-(difluoromethoxy)-6-methylpyridin-3-yl)-1-(2-isopropylphenyl)urea], for which the IC50 (LPAR1 IC50) was 100 to 1000 nM.
With `COc1ccc(NC(=O)N(c2ccccc2C(C)C)[C@H]2CC[C@H](S(C)(=O)=O)CC2)c(OC(F)F)n1` [Example 258, 3-(2-(difluoromethoxy)-6-methoxypyridin-3-yl)-1-(2-isopropylphenyl)-1-((1r,4r)-4-(methylsulfonyl)cyclohexyl)urea], the IC50 under setting [1] was in the range of 100 to 1000 nM.
Still for that read-out and setting: the value for `CC(C)c1ccccc1N(C(=O)Nc1cc(F)c(Cl)cc1OCC(F)F)[C@H]1CC[C@H](C(=O)O)CC1` [Example 334, (1r,4r)-4-(3-(4-chloro-2-(2,2-difluoroethoxy)-5-fluorophenyl)-1-(2-isopropylphenyl)ureido)cyclohexane-1-carboxylic acid] was less than 10 nM.
Same read-out and setting: the value for `Cc1ccc(NC(=O)N(c2ccccc2C(C)C)[C@H]2CC[C@@H](C(C)(C)O)CC2)c(OC(F)F)n1` [Example 238, 3-(2-(difluoromethoxy)-6-methylpyridin-3-yl)-1-((1s,4s)-4-(2-hydroxypropan-2-yl)cyclohexyl)-1-(2-isopropylphenyl)urea] was 100 to 1000 nM; that for `Cc1ccc(NC(=O)N(c2ccccc2C(C)C)[C@@H]2CC[C@@H](C(=O)O)C2)c(OC(F)F)n1` [Example 303] was less than 10 nM; that for `COc1ccc(NC(=O)N(c2ccccc2C(C)C)C2CN(C(C)=O)C2)c(OC)c1C` [Example 119] was 100 to 1000 nM.
On the same count and under the same terms, then `COc1ccc(NC(=O)N(c2ccccc2C(C)C)[C@H]2CC[C@H](OC)CC2)c(OC(F)F)n1` [Example 40, 3-(2-(difluoromethoxy)-6-methoxypyridin-3-yl)-1-(2-isopropylphenyl)-1-((1r,4r)-4-methoxycyclohexyl)urea], with 10 to 100 nM.
In the case of `Cc1ccc(NC(=O)N(c2ccccc2C(C)C)C2CC3(C2)CN(C(=O)NC2CC2)C3)c(OC(F)F)c1` [Example 126], the IC50 under setting [1] was in the range of 10 to 100 nM.
Still for that read-out and setting: then `Cc1ccc(NC(=O)N(c2ccccc2C(C)C)C2CN(S(N)(=O)=O)C2)c(OC(F)F)n1` [Example 127, 3-(3-(2-(difluoromethoxy)-6-methylpyridin-3-yl)-1-(2-isopropylphenyl)ureido)azetidine-1-sulfonamide], with 10 to 100 nM.
As to `CC(=O)N1CCC(N(C(=O)Nc2cc(F)c(Br)nc2OC(F)F)c2ccccc2C(C)C)CC1` [Example 217], the IC50 (LPAR1 IC50) fell in the range of 10 to 100 nM.
In the case of `[2H]C([2H])([2H])c1ccc(NC(=O)N(c2ccccc2C(C)C)[C@H]2CC[C@H](C(=O)O)CC2)c(OC(F)F)n1` [Example 156, trans-4-(3-(2-(difluoromethoxy)-6-(methyl-d3)pyridin-3-yl)-1-(2-isopropylphenyl)ureido)cyclohexane-1-carboxylic acid], the concentration for half-maximal inhibition (IC50) under setting [1] is less than 10 nM.
The same measure, in the same setting: the value for `Cc1cc(OC(F)F)c(NC(=O)N(c2ccccc2C(C)C)[C@H]2C[C@@H](CC(=O)O)C2)cn1` [Example 305] was 10 to 100 nM.
As to `CC(=O)N1CCC(N(C(=O)Nc2ccc(OC(F)F)nc2Cl)c2ccccc2C(C)C)CC1` [Example 108], the IC50 (LPAR1 IC50) fell in the range of 100 to 1000 nM.
As for `[2H]C([2H])([2H])Oc1ccc(NC(=O)N(c2ccccc2C(C([2H])([2H])[2H])C([2H])([2H])[2H])[C@H]2CC[C@H](C(=O)O)CC2)c(OC(F)F)n1` [Example 262], the IC50 under setting [1] is less than 10 nM.
The same measure, in the same setting: the value for `Cc1ccc(NC(=O)N(c2ccccc2C(C)C)[C@H]2CC[C@H](C(=O)O)CC2)c(OCC(F)F)n1` [Example 335, (1r,4r)-4-(3-(2-(2,2-difluoroethoxy)-6-methylpyridin-3-yl)-1-(2-isopropylphenyl)ureido)cyclohexane-1-carboxylic acid] was 10 to 100 nM; that for `Cc1ccc(NC(=O)N(c2ccccc2C(C)C)C2CN(CCC3(C(=O)O)CCC3)C2)c(OC(F)F)n1` [Example 174] was 100 to 1000 nM.
Turning to `Cc1ccc(NC(=O)N(c2ccccc2C(C)C)C2CC3(C2)CN(S(N)(=O)=O)C3)c(OC(F)F)c1` [Example 128], under setting [1], the IC50 was 10 to 100 nM.
With `CC(=O)N1CC(N(C(=O)Nc2ccc(C)cc2OC(F)F)c2ccccc2C(C)C)C1` [Example 117, 1-(1-acetylazetidin-3-yl)-3-(2-(difluoromethoxy)-4-methylphenyl)-1-(2-isopropylphenyl)urea], the IC50 under setting [1] is 10 to 100 nM.
For `CC(=O)N1CCC(N(C(=O)Nc2cnccn2)c2ccccc2C(C)C)CC1` [Example 130], the IC50 (LPAR1 IC50) is greater than 1000 nM.
Consider `CC(=O)N1CC2(CC(N(C(=O)Nc3ncc(Cl)cc3OC(F)F)c3ccccc3C(C)C)C2)C1` [Example 124], for which, under setting [1], the IC50 is 100 to 1000 nM.
Same read-out and setting: the value for `CC(=O)NC1CC(N(C(=O)Nc2ccc(C)nc2OC(F)F)c2ccccc2C(C)C)C1` (stereo not drawn) [Example 271, N-(3-(3-(2-(difluoromethoxy)-6-methylpyridin-3-yl)-1-(2-isopropylphenyl)ureido)cyclobutyl)acetamide] was 100 to 1000 nM; that for `COc1ccc(NC(=O)N(c2ccccc2C(C)C)[C@H]2CC[C@@H](S(C)(=O)=O)CC2)c(OC(F)F)n1` [Example 257, 3-(2-(difluoromethoxy)-6-methoxypyridin-3-yl)-1-(2-isopropylphenyl)-1-((1s,4s)-4-(methylsulfonyl)cyclohexyl)urea] was less than 10 nM.
Same read-out and setting: then `CC(=O)N1CC2(CC(N(C(=O)Nc3ccc(C)cc3OC(F)F)c3ccccc3C(C)C)C2)C1` [Example 125, 1-(2-acetyl-2-azaspiro[3.3]heptan-6-yl)-3-(2-(difluoromethoxy)-4-methylphenyl)-1-(2-isopropylphenyl)urea], with 10 to 100 nM.
Turning to `CC(=O)N1CCC(N(C(=O)Nc2cc(F)c(C)nc2OC(F)F)c2ccccc2C(C)C)CC1` [Example 218, 1-(1-acetylpiperidin-4-yl)-3-(2-(difluoromethoxy)-5-fluoro-6-methylpyridin-3-yl)-1-(2-isopropylphenyl)urea], under “LPAR1 IC50”, the IC50 lay within 10 to 100 nM.
On to `COc1ccc(NC(=O)N(c2ccccc2C(C)C)[C@H]2CC[C@@H](C(=O)O)CC2)c(OC(F)F)n1` [Example 145], for which, under setting [1], the IC50 was in the range of 100 to 1000 nM.
Still for that read-out and setting: the value for `Cc1ccc(NC(=O)N(c2ccccc2C(C)C)C2CC3(CC(C(=O)O)C3)C2)c(OC(F)F)n1` (stereo not drawn) [Example 229] was 10 to 100 nM; that for `[2H]C([2H])([2H])Oc1cc(C(F)F)ncc1NC(=O)N(c1ccccc1C(C)C)[C@H]1CC[C@H](C(=O)O)CC1` [Example 296, (1r,4r)-4-(3-(6-(difluoromethyl)-4-(methoxy-d3)pyridin-3-yl)-1-(2-isopropylphenyl)ureido)cyclohexane-1-carboxylic acid] was 100 to 1000 nM.
Same read-out and setting: the value for `Cc1ccc(NC(=O)N(c2ccccc2C(C)C)C2CCC(NS(C)(=O)=O)CC2)c(OC(F)F)n1` (stereo not drawn) [Example 269, N-(4-(3-(2-(difluoromethoxy)-6-methylpyridin-3-yl)-1-(2-isopropylphenyl)ureido)cyclohexyl)methanesulfonamide] was 10 to 100 nM; that for `Cc1ccc(NC(=O)N(c2ccccc2C(C)C)C2CCC(NC(=O)c3nccs3)CC2)c(OC(F)F)n1` (stereo not drawn) [Example 268, N-(4-(3-(2-(difluoromethoxy)-6-methylpyridin-3-yl)-1-(2-isopropylphenyl)ureido)cyclohexyl)thiazole-2-carboxamide] was 100 to 1000 nM; that for `Cc1ccc(NC(=O)N(c2ccccc2C(C)C)[C@H]2CC[C@](O)(C(F)(F)C(=O)O)CC2)c(OC(F)F)n1` [Example 326] was less than 10 nM.
Same read-out and setting: the value for `Cc1ccc(NC(=O)N(c2ccccc2C(C)C)C2(C)COC2)c(OC(F)F)n1` [Example 3, 3-(2-(difluoromethoxy)-6-methylpyridin-3-yl)-1-(2-isopropylphenyl)-1-(3-methyloxetan-3-yl)urea] was 100 to 1000 nM.
With `Cc1ccc(NC(=O)N(c2ccccc2C(C)C)C2CCN(C(=O)OC(C)(C)C)CC2)c(OC(F)F)n1` [Example 1, tert-butyl 4-(3-(2-(difluoromethoxy)-6-methylpyridin-3-yl)-1-(2-isopropylphenyl)ureido)piperidine-1-carboxylate], the IC50 (LPAR1 IC50) was 100 to 1000 nM.
Consider `Cc1ccc(NC(=O)N(c2ccccc2C(C)C)C2CC3(C2)CS(=O)(=O)C3)c(OC(F)F)n1` [Example 21, 3-(2-(difluoromethoxy)-6-methylpyridin-3-yl)-1-(2,2-dioxido-2-thiaspiro[3.3]heptan-6-yl)-1-(2-isopropylphenyl)urea], for which, under setting [1], the IC50 is 100 to 1000 nM.
With `Cc1ccc(NC(=O)N(c2ccccc2C(C)C)[C@H]2CC[C@H](c3cccnc3)CC2)c(OC(F)F)n1` [Example 261, 3-(2-(difluoromethoxy)-6-methylpyridin-3-yl)-1-(2-isopropylphenyl)-1-((1r,4r)-4-(pyridin-3-yl)cyclohexyl)urea], under setting [1], the IC50 is 100 to 1000 nM.
Consider `COc1ccc(NC(=O)N(c2ccccc2C(C)C)[C@H]2CC[C@H](c3cc(O)no3)CC2)c(OC(F)F)n1` [Example 283, 3-(2-(difluoromethoxy)-6-methoxypyridin-3-yl)-1-((1r,4r)-4-(3-hydroxyisoxazol-5-yl)cyclohexyl)-1-(2-isopropylphenyl)urea], for which the IC50 under setting [1] was 10 to 100 nM.
Same read-out and setting: the value for `CC(C)c1ccccc1N(C(=O)Nc1cc(F)c(F)cc1OC(F)F)[C@H]1C[C@H](C(=O)O)C1` [Example 164, trans-3-(3-(2-(difluoromethoxy)-4,5-difluorophenyl)-1-(2-isopropylphenyl)ureido)cyclobutane-1-carboxylic acid] was 10 to 100 nM.

A word on the IC50: it is the concentration that inhibits the measured activity by half.

The record behind these values is patent US20250034110A1, “LPAR1 ANTAGONISTS AND USES THEREOF” (Pipeline Therapeutics, Inc., priority 2021, published 2025).
